Results: US10231958B2, “Methods and compositions for enhancing chemotherapy” (THE BOARD OF REGENTS OF THE UNIVERSITY OF TEXAS SYSTEM, priority 2015, dated 2019)

How the values were obtained:
[1] = tested on: Intracellular glutathione levels; assay: Glutathione assay; format: cell-based
Description: Intracellular glutathione levels were measured using the Glutathione (GSH/GSSG/Total) Fluorometric Assay Kit (BioVision Incorporated, Calif.), following manufacturer protocol. Briefly, 1×10^6 cells were scraped in PBS and centrifuged. Pellets were resuspended in 100 μL Glutathione assay buffer. 60 μL of this homogenate was mixed with PCA (perchloric acid) and centrifuged. Supernatant containing small molecules including GSH were neutralized with KOH and 3 fractions were collected and separated to analyze reduced (GSH), oxidized (GSSG) and total glutathione forms (GSH+GSSG) by reaction with OPA probe (o-phthalaldehyde) in the presence or absence of GSH quencher or reducing agents depending on the compound to be determined. Fluorescence was monitored at Ex/Em=340/420 nm for 40 min. Glutathione forms were calculated and normalized by protein (Bradford's assay).

[2] = tested on: protein sulfhydryl (protein-SH) groups; assay: Protein sulfhydryl groups (dibromobimane assay); format: cell-based; details: 12 h treatment
Description: Protein reduced thiol groups (Protein-SH) were measured by dibromobimane assays with minor modifications (PMID:20463849). The 6-well plated cells (500,000 cells) were scraped in 0.6 mL PBS and 200 μL Perchloric acid (6 N) was added to precipitate proteins. The samples were incubated for 5 min in ice, centrifuged (14,000×g) Supernatants containing small peptides and glutathione were discarded and pellets were resuspended in 100 μL NaOH 0.1N, neutralized with 100 μL ice cold Perchloric acid (0.1 N), and 0.1 N PBS was added to keep pH constant. A stock solution of 4 mM dibromobimane in DMSO was added to a final concentration 40 μM, and incubated for 30 30 min at 37° C. Dibromobimane-protein fluorescence was measured at Ex=393 and, Em=477 nm.

[3] = tested on: MDA-MB231 cells; assay: Gene expression profiling (RNAseq) in MDA-MB231 cells; format: cell-based, human
Description: Human cancer cell-lines treated with different pharmaceutical compounds were profiled by RNA-seq protocol using Illumina HiSeq 2000 system (Illumina, San Diego, Calif.). RNA was harvested 0, 8 and 24 hours post treatment using the RNeasy protocol (Qiagen) and the purity of prepared RNA was determined using Agilent 2100 BioAnalyzer. Total RNA samples about […] were used for sequencing library preparation according to Illumina TruSeq Total RNA Sample Preparation Guide (Illumina Cat. #: RS-122-2201). Each library was bar-coded and then pooled for cluster generation and sequencing run with 100 bp paired-end (PE) sequencing protocol. Short read sequences from RNAseq were first aligned to UCSC hg19 genome build using TopHat2 algorithm (PMID:19289445) and then quantified for gene expression by HTSeq [Anders, 2014]. Genes with lower read counts (determined by examining read counts in non-exonic regions) were removed. Differential expression more than 2 fold was selected as differentially expressed genes (DEGs).
For those genes for which expression was higher than noise/background, significant change in expression compared to unexposed (0 h) control, ±2-fold change, was used as cut-off for induction/repression. The lists of genes with altered expression were analyzed using Ingenuity Systems (IPA, Ingenuity Pathway Analyzer, Qiagen), DAVID (PMID:19131956; PMID: 19033363), and Rock Breast Cancer Functional Genomic Database (PMID:20563840) analytical software (p<0.05; FDR<10%) to ensure a good coverage of both metabolic and transduction pathways (due to differences in pathways libraries with the databases). Only pathways related to biological processes/signaling were considered relevant, and the terms were grouped by similarity of the biological for presentation; disease related pathways were discarded. Transcription factor enrichment analysis was performed using the TFactS software (PMID:20215436), which uses an algorithm to compare potential transcription factors involved in the regulation of genes with the input lists. […]

[4] = tested on: primary MEFs or breast cancer cells; assay: Cell viability of MEFs and breast cancer cells with kinase inhibitors; format: cell-based, mouse, human
Description: The D. melanogaster embryonic cell line Kc167 was grown in Schneider medium (Invitrogen, Carlsbad, Calif.) supplemented with 10% heat-inactivated (56° C./30 min) fetal bovine serum (FBS), penicillin and streptomycin at 22° C. in a humidified incubator. Primary MEFs were obtained by harvesting 14.5-day C57BL/6J embryos as previously described (Ravi et al., 2009, PLoS Genet 5, e1000527). Briefly, fetal liver and head were removed and the remainder of the embryo was mechanically disaggregated in plating medium. A suspension of single-cells was plated in DMEM (plus 10% FBS, 100 U/mL penicillin and 100 μg/mL streptomycin). MEFs were grown for two passages before freezing aliquots. Aliquots were taken and expanded as needed for each experiment. MDA-MB231, SkBr3 and MCF-7 breast cancer cells lines were obtained from ATCC and grown in DMEM supplemented with 10% inactivated FBS plus antibiotics in a 37° C. humidified incubator at […] atmosphere. Cells were kept and treated in the exponential phase of growing (60-70% confluence). Pharmaceuticals Sorafenib (Santa Cruz Biotechnology), UO126, SP600125, SB239063, celecoxib, buthionine sulfoximine (BSO), cycloheximide (CHX), actinomycin D and BAY117082 (BAY), or antioxidants as N-Acetyl-Cysteine (NAC), glutathione ethyl-ester (GSH-E) and Trolox (all from Sigma-Aldrich, USA) were pre-incubated with cells for 6 to 8 h before treatments with MMS, temozolomide, CDDP (from Sigma-Aldrich, USA) or 4-hydroperoxycyclophosphamide (4-HC; from US Biological). DMSO concentrations were kept to a maximum of 0.1% for all experiments.
Cell viability was assessed using CellTiter-Glo Luminescent Viability assay (Promega) in 384 or 96-well plates white-border clear-bottom plated cells. For caspase-3/7 activity, Caspase-Glo 3/7 Assay kits were used (Promega). For caspase assays, the cells were seeded in 96-well plates and assayed directly after treatments. […] LDH release into culture medium was quantified by Cytotox-96 Non-Radioactive assay kit in agreement with instructions (Promega).

Structure (SMILES) | glutathione metabolites ([1]; higher levels of MMS, as early as 8 h) | total GSH ([1]; lower levels of MMS (40 μg/mL)) | protein sulfhydryl residues [2] | effect on NRF2 and UPR genes ([3]; 5 μM sorafenib) | effect on basal gene expression (VEGFA, HES1, MAML3, PLAT, ADAMST1) ([3]; 5 μM sorafenib) | effect on MMS-induced inflammatory/invasive genes ([3]; 5 μM sorafenib plus MMS) | effect on viability at low concentrations ([4]; 1 to 5 μM, presence or absence of alkylating agents) | concentration with non-selective cytotoxicity ([4]; breast cell lines and MEFs, GSH depletion, aberrant ROS) [µM] | viability at higher levels ([4]; higher levels of sorafenib)
COS(C)(=O)=O [MMS, methyl-methanesulfonate] | depleted glutathione metabolites | able to keep or even increase their total GSH | deplete protein sulfhydryl residues |  |  |  |  |  | 
CNC(=O)c1cc(Oc2ccc(NC(=O)Nc3ccc(Cl)c(C(F)(F)F)c3)cc2)ccn1 [sorafenib, 4-[4-[[4-chloro-3-(trifluoromethyl)phenyl]carbamoylamino]phenoxy]-N-methyl-pyridine-2-carboxamide] |  |  |  | lack of effect | decreased basal expression of several genes | blocked several of the aforementioned MMS-induced inflammatory/invasive genes | did not affect MMS/4-HC-induced losses in cell viability | ≥ 20 | non-selective detriment to both cancer cells and MEFs
